These results are taken from patent US20240109865A1, “INDAZOLE COMPOUNDS AS KINASE INHIBITORS” (TYRA BIOSCIENCES, INC., priority 2020, published 2024).

For experiment [1], the target named is FGFR3-BAIAP2L1 Ba/F3 cells (Homo sapiens, UniProt P22607). The experiment is described as follows: Ba/F3 cell viability assay (CellTiter-Glo 2.0), FGFR3-BAIAP2L1 Ba/F3. In kind it is cell-based. Particulars: for Ba/F3 FGFR1/FGFR3 Selectivity: FGFR3 > FGFR1 selectivity ratio in Ba/F3 FGFR fusion cell based assays; for IC50: read-out: Ba/F3 Cells FGFR3 (IC50 nM), FGFR3-BAIAP2L1 Ba/F3 cells, 48 hours, Cell Titer Glo 2.0. Put shortly:
(§1)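 Viability read as ATP luminescence (CellTiter-Glo 2.0) after 48 h compound exposure, normalized to DMSO-treated cells and fitted with a 4-parameter curve for IC50. Cells: Ba/F3 dependent on FGFR1-BCR or FGFR3-BAIAP2L1 fusion kinase; top dose 30 μM, 10-fold steps, 9 doses in triplicate.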
On the technique in general: ATP-based viability assays read luminescence as a measure of living cells.

For another experiment, the target named is FGFR1-BCR Ba/F3 cells (Homo sapiens, UniProt P11362). Briefly: Ba/F3 cell viability assay (CellTiter-Glo 2.0), FGFR1-BCR Ba/F3. In kind it is cell-based. Particulars: read-out: Ba/F3 Cells FGFR1 (IC50 nM), 48 hours, Cell Titer Glo 2.0. Put shortly: as §1
Sequence of FGFR1-BCR Ba/F3 cells (P11362 22-822 limits assumed, change not shown): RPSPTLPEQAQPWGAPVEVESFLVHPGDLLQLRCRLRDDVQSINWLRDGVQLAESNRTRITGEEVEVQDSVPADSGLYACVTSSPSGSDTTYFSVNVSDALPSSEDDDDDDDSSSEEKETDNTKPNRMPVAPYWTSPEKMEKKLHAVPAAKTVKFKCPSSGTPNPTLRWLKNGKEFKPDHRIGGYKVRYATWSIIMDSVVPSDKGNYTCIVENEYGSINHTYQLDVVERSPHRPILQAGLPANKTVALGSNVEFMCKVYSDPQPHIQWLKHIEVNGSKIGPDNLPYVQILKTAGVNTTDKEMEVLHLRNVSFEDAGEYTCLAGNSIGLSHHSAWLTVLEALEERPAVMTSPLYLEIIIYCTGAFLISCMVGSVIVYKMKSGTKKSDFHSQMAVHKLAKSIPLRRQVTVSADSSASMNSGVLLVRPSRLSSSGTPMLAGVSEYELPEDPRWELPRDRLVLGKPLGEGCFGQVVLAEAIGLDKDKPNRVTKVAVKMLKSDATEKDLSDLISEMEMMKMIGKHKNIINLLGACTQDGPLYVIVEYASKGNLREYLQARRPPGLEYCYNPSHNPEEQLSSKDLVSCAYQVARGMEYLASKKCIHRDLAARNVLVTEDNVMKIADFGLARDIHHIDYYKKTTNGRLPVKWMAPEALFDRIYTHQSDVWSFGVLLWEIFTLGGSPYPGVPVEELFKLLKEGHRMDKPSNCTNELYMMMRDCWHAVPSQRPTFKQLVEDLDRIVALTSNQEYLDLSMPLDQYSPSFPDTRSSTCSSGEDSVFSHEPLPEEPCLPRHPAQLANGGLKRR
A further experiment deals with FGFR1 (Homo sapiens (Human), UniProt P11362). Briefly: Kinase assay, binding constants (Kd), kinase-tagged T7 phage, qPCR. Put shortly:
(§2)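 Using T7 phage lysates from BL21-derived E. coli, compounds at 0.9% final DMSO competed for kinase binding to ligand-bearing magnetic beads. After elution, qPCR measured remaining kinase, and Kds were fitted by non-linear least squares with the Hill slope fixed at −1.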

The target of a further experiment is FGFR2 (Homo sapiens (Human), UniProt P21802). Described as above. In short, it runs like this:
as §2

The target of the next experiment is FGFR3 (Homo sapiens (Human), UniProt P22607). The experiment is described as above. In short, it runs like this:
as §2

In the next experiment the target is FGFR3 (V555M) (Homo sapiens (Human), UniProt P22607, V555M). Described as above. Particulars: V555M mutant. In short, it runs like this: as §2
Sequence of FGFR3 (V555M) (P22607 23-806 V555M): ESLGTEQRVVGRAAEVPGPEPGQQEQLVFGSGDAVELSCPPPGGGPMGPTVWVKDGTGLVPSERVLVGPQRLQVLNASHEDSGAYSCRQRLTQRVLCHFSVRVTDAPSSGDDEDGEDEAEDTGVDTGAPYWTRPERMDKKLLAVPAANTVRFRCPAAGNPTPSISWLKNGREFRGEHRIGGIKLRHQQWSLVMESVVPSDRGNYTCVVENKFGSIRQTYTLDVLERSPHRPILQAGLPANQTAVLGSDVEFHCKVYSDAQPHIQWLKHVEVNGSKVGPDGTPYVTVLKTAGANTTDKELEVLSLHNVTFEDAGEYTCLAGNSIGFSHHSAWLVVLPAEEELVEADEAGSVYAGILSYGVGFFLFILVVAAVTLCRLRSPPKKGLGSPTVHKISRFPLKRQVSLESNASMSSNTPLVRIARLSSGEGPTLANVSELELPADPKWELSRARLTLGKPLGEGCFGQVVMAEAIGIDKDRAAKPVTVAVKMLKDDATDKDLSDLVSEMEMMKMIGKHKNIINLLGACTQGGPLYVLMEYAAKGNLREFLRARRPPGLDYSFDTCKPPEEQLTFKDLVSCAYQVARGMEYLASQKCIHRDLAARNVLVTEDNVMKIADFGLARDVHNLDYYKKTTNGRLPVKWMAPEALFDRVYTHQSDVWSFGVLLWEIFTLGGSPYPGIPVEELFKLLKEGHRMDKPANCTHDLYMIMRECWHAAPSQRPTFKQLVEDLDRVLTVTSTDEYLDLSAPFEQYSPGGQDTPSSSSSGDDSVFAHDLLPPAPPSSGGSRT
The target in the next experiment is FGFR4 (Homo sapiens (Human), UniProt P22455). Described as above. In short, it runs like this:
as §2

Sequence of FGFR1 (P11362 22-822): as the sequence (P11362 22-822 limits assumed, change not shown) above
Sequence of FGFR2 (P21802 22-821): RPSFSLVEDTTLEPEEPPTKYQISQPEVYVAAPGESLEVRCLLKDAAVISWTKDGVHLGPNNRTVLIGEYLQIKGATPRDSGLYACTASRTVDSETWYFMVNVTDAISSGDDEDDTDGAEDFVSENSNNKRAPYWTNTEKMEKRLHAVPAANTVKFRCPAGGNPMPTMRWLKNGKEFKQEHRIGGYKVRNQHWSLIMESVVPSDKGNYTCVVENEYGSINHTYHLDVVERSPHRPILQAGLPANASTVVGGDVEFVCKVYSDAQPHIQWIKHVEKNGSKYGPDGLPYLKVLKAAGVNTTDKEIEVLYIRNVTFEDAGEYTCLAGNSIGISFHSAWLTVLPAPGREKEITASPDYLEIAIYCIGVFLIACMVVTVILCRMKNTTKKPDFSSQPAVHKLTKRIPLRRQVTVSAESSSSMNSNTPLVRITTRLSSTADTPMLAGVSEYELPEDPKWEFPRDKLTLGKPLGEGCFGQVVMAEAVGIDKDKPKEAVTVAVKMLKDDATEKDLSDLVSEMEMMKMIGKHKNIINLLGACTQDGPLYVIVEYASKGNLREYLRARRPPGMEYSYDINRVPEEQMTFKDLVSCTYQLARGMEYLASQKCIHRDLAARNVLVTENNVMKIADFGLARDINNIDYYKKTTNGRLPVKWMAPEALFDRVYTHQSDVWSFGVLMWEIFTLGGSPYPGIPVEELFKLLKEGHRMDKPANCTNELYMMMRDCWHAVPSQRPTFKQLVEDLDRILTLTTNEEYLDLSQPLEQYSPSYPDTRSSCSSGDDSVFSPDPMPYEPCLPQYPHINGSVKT
Sequence of FGFR4 (P22455 22-802): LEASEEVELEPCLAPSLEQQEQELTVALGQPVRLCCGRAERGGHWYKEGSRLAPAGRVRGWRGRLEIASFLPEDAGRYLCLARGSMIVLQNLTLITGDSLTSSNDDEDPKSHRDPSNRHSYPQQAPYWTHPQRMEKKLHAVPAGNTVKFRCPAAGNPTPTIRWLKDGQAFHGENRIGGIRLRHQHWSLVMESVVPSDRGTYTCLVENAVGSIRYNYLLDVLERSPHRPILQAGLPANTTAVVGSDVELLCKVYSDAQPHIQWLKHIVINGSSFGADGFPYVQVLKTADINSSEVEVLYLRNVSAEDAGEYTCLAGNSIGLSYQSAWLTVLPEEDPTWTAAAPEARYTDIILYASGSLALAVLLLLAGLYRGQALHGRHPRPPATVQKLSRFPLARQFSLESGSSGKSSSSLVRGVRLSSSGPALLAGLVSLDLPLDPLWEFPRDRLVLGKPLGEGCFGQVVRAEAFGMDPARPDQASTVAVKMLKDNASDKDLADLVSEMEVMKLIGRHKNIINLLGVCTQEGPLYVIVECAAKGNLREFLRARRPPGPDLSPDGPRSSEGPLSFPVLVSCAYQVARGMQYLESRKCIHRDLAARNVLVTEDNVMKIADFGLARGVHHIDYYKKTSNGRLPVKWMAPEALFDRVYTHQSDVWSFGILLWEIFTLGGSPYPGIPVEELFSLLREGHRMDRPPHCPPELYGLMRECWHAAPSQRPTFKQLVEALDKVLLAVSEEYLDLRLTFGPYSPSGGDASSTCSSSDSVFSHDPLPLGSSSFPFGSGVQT
Sequence of FGFR3-BAIAP2L1 Ba/F3 cells (P22607 23-806 limits assumed, change not shown): as the sequence (P22607 23-806 V555M) above, with M533V counted along it
Sequence of FGFR3 (P22607 23-806): as the sequence (P22607 23-806 V555M) above, with M533V counted along it

By Kd is commonly meant the equilibrium constant for the complex coming apart. The low end stands for higher affinity, the high end for lower affinity. For `C[C@@H](Oc1ccc2[nH]nc(-c3cnn(C4CCN(C5CCC5)CC4)c3)c2c1)c1c(Cl)cncc1Cl` [Example 90, 3-[1-(1-cyclobutyl-4-piperidyl)pyrazol-4-yl]-5-[(1R)-1-(3,5-dichloro-4-pyridyl)ethoxy]-1H-indazole], the “Ba/F3 FGFR1/FGFR3 Selectivity” value in experiment [1] turned out to be 10. Moreover, the IC50 was in the range of 1 to 20 nM in experiment [1] and 20 to 100 nM at FGFR1-BCR Ba/F3 cells. In addition, the equilibrium dissociation constant (Kd) on FGFR1 lay within 1 to 20 nM; on FGFR2 it was 1 to 20 nM; at FGFR3, 1 to 20 nM; at FGFR3 (V555M), 1 to 20 nM; at FGFR4, 20 to 100 nM.

As to `CCN1CC[C@@H](n2cc(-c3n[nH]c4ccc(O[C@H](C)c5c(Cl)cncc5Cl)cc34)cn2)C1` [Example 91, 5-[(1R)-1-(3,5-dichloro-4-pyridyl)ethoxy]-3-[1-[(3R)-1-ethylpyrrolidin-3-yl]pyrazol-4-yl]-1H-indazole], the “Ba/F3 FGFR1/FGFR3 Selectivity” value in experiment [1] stood at 8. Also, the values for the IC50 (in experiment [1]; at FGFR1-BCR Ba/F3 cells) were 1 to 20 nM and 100 to 300 nM, respectively. The Kd at FGFR1 lay within 1 to 20 nM; at FGFR2, 1 to 20 nM; at FGFR3 it was 1 to 20 nM; at FGFR3 (V555M) it was 1 to 20 nM; on FGFR4 it was 20 to 100 nM.

For the molecule `Cc1ncc(Cl)c([C@@H](C)Oc2ccc3[nH]nc(-c4cnn(C5CCNCC5)c4)c3c2)c1Cl` [Example 92, 5-[(1R)-1-(3,5-dichloro-2-methyl-4-pyridyl)ethoxy]-3-[1-(4-piperidyl)pyrazol-4-yl]-1H-indazole], in experiment [1], the “Ba/F3 FGFR1/FGFR3 Selectivity” value was 18. For the same molecule, the IC50 in experiment [1] lay within 20 to 100 nM; at FGFR1-BCR Ba/F3 cells it was 100 to 300 nM. In addition, the Kd on FGFR1 is 1 to 20 nM; at FGFR2, 1 to 20 nM; at FGFR3 it was 1 to 20 nM; on FGFR3 (V555M), 1 to 20 nM; at FGFR4, 20 to 100 nM.

As to `C[C@@H](Oc1ccc2[nH]nc(-c3ccc(N4CC5(CCN5S(C)(=O)=O)C4)nc3)c2c1)c1c(Cl)cncc1Cl` [Example 100, 5-[(1R)-1-(3,5-dichloro-4-pyridyl)ethoxy]-3-[6-(1-methylsulfonyl-1,6-diazaspiro[3.3]heptan-6-yl)-3-pyridyl]-1H-indazole], the “Ba/F3 FGFR1/FGFR3 Selectivity” value in experiment [1] is 22. Also, the figures for the IC50 (in experiment [1]; at FGFR1-BCR Ba/F3 cells) were 1 to 20 nM and greater than 300 nM, respectively. Further, the Kd on FGFR1, at FGFR2, on FGFR3, at FGFR3 (V555M) and on FGFR4 was 1 to 20 nM throughout.

In the case of `Cc1ncc(Cl)c([C@@H](C)Oc2ccc3[nH]nc(-c4cnn(C5CCOCC5)c4)c3c2)c1Cl` [Example 104, 5-[(1R)-1-(3,5-dichloro-2-methyl-4-pyridyl)ethoxy]-3-(1-tetrahydropyran-4-ylpyrazol-4-yl)-1H-indazole], the “Ba/F3 FGFR1/FGFR3 Selectivity” value in experiment [1] is 10. The IC50 in experiment [1] was 20 to 100 nM; on FGFR1-BCR Ba/F3 cells it was greater than 300 nM. Further, the Kd fell in the range of 20 to 100 nM at FGFR1; 1 to 20 nM on FGFR2; 1 to 20 nM at FGFR3; 1 to 20 nM at FGFR3 (V555M); 20 to 100 nM at FGFR4.

Consider `CC(Oc1ccc2[nH]nc(-c3cnn(C4CCN(C5COC5)CC4)c3)c2c1)c1c(Cl)ccnc1Cl` (stereo not shown) [Example 108, 5-[1-(2,4-dichloro-3-pyridyl)ethoxy]-3-[1-[1-(oxetan-3-yl)-4-piperidyl]pyrazol-4-yl]-1H-indazole], for which, in experiment [1], the “Ba/F3 FGFR1/FGFR3 Selectivity” value is 14. Moreover, the IC50 was in the range of 1 to 20 nM in experiment [1] and 100 to 300 nM on FGFR1-BCR Ba/F3 cells. Also, the Kd lay within 20 to 100 nM at FGFR1; 1 to 20 nM at FGFR2; 1 to 20 nM on FGFR3; 1 to 20 nM at FGFR3 (V555M); 20 to 100 nM on FGFR4.

In the case of `C[C@@H](Oc1ccc2[nH]nc(-c3cnn(C4CCS(=O)(=O)CC4)c3)c2c1)c1c(Cl)cncc1Cl` [Example 114, 4-[4-[5-[(1R)-1-(3,5-dichloro-4-pyridyl)ethoxy]-1H-indazol-3-yl]pyrazol-1-yl]thiane 1,1-dioxide], the “Ba/F3 FGFR1/FGFR3 Selectivity” value in experiment [1] stood at 12. Moreover, the values for the IC50 (in experiment [1]; on FGFR1-BCR Ba/F3 cells) were 20 to 100 nM and 100 to 300 nM, respectively. Also, the Kd on FGFR1 was 1 to 20 nM; at FGFR2, 1 to 20 nM; at FGFR3, 1 to 20 nM; at FGFR3 (V555M), 1 to 20 nM; on FGFR4, 20 to 100 nM.

In the case of `Cc1ncc(Cl)c([C@@H](C)Oc2ccc3[nH]nc(-c4cnn(C5CCS(=O)(=O)CC5)c4)c3c2)c1Cl` [Example 116, 4-[4-[5-[(1R)-1-(3,5-dichloro-2-methyl-4-pyridyl)ethoxy]-1H-indazol-3-yl]pyrazol-1-yl]thiane 1,1-dioxide], the “Ba/F3 FGFR1/FGFR3 Selectivity” value in experiment [1] is 12. The IC50 in experiment [1] was in the range of 1 to 20 nM; at FGFR1-BCR Ba/F3 cells, 100 to 300 nM. The Kd was 20 to 100 nM on FGFR1; 20 to 100 nM at FGFR2; 1 to 20 nM on FGFR3; 1 to 20 nM at FGFR3 (V555M); 20 to 100 nM on FGFR4.

Turning to `CCS(=O)(=O)N1CC2(CN(c3ncc(-c4n[nH]c5ccc(O[C@H](C)c6c(Cl)cncc6Cl)cc45)cn3)C2)C1` [Example 128, 5-[(1R)-1-(3,5-dichloro-4-pyridyl)ethoxy]-3-[2-(2-ethylsulfonyl-2,6-diazaspiro[3.3]heptan-6-yl)pyrimidin-5-yl]-1H-indazole], the “Ba/F3 FGFR1/FGFR3 Selectivity” value in experiment [1] came out at 8. The IC50 is 20 to 100 nM in experiment [1] and greater than 300 nM on FGFR1-BCR Ba/F3 cells. The Kd on FGFR1 is 20 to 100 nM; at FGFR2, 20 to 100 nM; at FGFR3, 1 to 20 nM; on FGFR3 (V555M) it was 1 to 20 nM; at FGFR4 it was 1 to 20 nM.

With `C[C@@H](Oc1ccc2[nH]nc(-c3cnc(N4CC5(CCCS(=O)(=O)C5)C4)nc3)c2c1)c1c(Cl)cncc1Cl` [Example 129, 2-[5-[5-[(1R)-1-(3,5-dichloro-4-pyridyl)ethoxy]-1H-indazol-3-yl]pyrimidin-2-yl]-6λ^6-thia-2-azaspiro[3.5]nonane 6,6-dioxide], the “Ba/F3 FGFR1/FGFR3 Selectivity” value in experiment [1] was found to be 6. In addition, the IC50 in experiment [1] lay within 20 to 100 nM; on FGFR1-BCR Ba/F3 cells it was 100 to 300 nM. The Kd at FGFR1 fell in the range of 20 to 100 nM; on FGFR2 it was 20 to 100 nM; at FGFR3, 1 to 20 nM; at FGFR3 (V555M), 1 to 20 nM; on FGFR4, 1 to 20 nM.

Regarding `CCOC(=O)N1CCC2(CC1)CN(c1ccc(-c3n[nH]c4ccc(O[C@H](C)c5c(Cl)cncc5Cl)cc34)cn1)C2` [Example 130, ethyl 2-[5-[5-[(1R)-1-(3,5-dichloro-4-pyridyl)ethoxy]-1H-indazol-3-yl]-2-pyridyl]-2,7-diazaspiro[3.5]nonane-7-carboxylate], the “Ba/F3 FGFR1/FGFR3 Selectivity” value in experiment [1] turned out to be 12. Also, the values for the IC50 (in experiment [1]; at FGFR1-BCR Ba/F3 cells) were 20 to 100 nM and greater than 300 nM, respectively. The Kd at FGFR1 fell in the range of 20 to 100 nM; on FGFR2 it was 20 to 100 nM; at FGFR3, 1 to 20 nM; on FGFR3 (V555M), 1 to 20 nM; on FGFR4, 1 to 20 nM.

For `CCOC(=O)N1CCCC2(C1)CN(c1ncc(-c3n[nH]c4ccc(O[C@H](C)c5c(Cl)cncc5Cl)cc34)cn1)C2` [Example 131, ethyl 2-[5-[5-[(1R)-1-(3,5-dichloro-4-pyridyl)ethoxy]-1H-indazol-3-yl]pyrimidin-2-yl]-2,8-diazaspiro[3.5]nonane-8-carboxylate], the “Ba/F3 FGFR1/FGFR3 Selectivity” value in experiment [1] was determined as 5. Also, the IC50 was 100 to 300 nM in experiment [1] and greater than 300 nM on FGFR1-BCR Ba/F3 cells. For the same molecule, the dissociation constant (Kd) at FGFR1 was 100 to 300 nM; on FGFR2, 100 to 300 nM; on FGFR3 it was 1 to 20 nM; on FGFR3 (V555M), 1 to 20 nM; at FGFR4, 1 to 20 nM.

`CC(C)OC(=O)N1CCCC2(C1)CN(c1ncc(-c3n[nH]c4ccc(O[C@H](C)c5c(Cl)cncc5Cl)cc34)cn1)C2` [Example 135, isopropyl 2-[5-[5-[(1R)-1-(3,5-dichloro-4-pyridyl)ethoxy]-1H-indazol-3-yl]pyrimidin-2-yl]-2,8-diazaspiro[3.5]nonane-8-carboxylate]: the “Ba/F3 FGFR1/FGFR3 Selectivity” value in experiment [1] is 9. Also, the IC50 in experiment [1] is 100 to 300 nM; at FGFR1-BCR Ba/F3 cells it was greater than 300 nM. The Kd at FGFR1 is greater than 300 nM; at FGFR2, greater than 300 nM; at FGFR3, 20 to 100 nM; at FGFR3 (V555M), 1 to 20 nM; at FGFR4, 1 to 20 nM.

With `COC(=O)N1CCC2(CC1)CN(c1ncc(-c3n[nH]c4ccc(O[C@H](C)c5c(Cl)cncc5Cl)cc34)cn1)C2` [Example 136, methyl 2-[5-[5-[(1R)-1-(3,5-dichloro-4-pyridyl)ethoxy]-1H-indazol-3-yl]pyrimidin-2-yl]-2,7-diazaspiro[3.5]nonane-7-carboxylate], the “Ba/F3 FGFR1/FGFR3 Selectivity” value in experiment [1] is reported as 6. In addition, the values for the IC50 (in experiment [1]; on FGFR1-BCR Ba/F3 cells) were 20 to 100 nM and greater than 300 nM, respectively. In addition, the Kd at FGFR1 was 20 to 100 nM; on FGFR2, 1 to 20 nM; at FGFR3 it was 1 to 20 nM; on FGFR3 (V555M), 1 to 20 nM; at FGFR4, 1 to 20 nM.
